# Tests used:
# PZ = test: 48 h incubation with the salts: cell fluorescence, living cells, multiplication coefficient (Table 1); format: cell-based; details: 48 hs, 50 mcg/ml
# Experimental: (§1) New compounds of formula 1 were tested on cell lines. Use was made of 9 different neoplastic cell lines which were incubated for 48 hs with various new salts of protoporphyrin and with a new salt of the conventionally applied HpD preparation/hematoporphyrin derivatives/obtained according to Lipson et al. All compounds were used in the form of aqueous solutions, at a concentration of 50 mcg/ml. Determination was made of:
# (§2) 1/ Cell fluorescence /F/: after 48 hs incubation, the cells were washed away, the intensity of fluorescence was measured in a fluorescence microscope and was expressed on an arbitrary scale of 0-4 scores;
# (§3) 2/ Percentage of living cells /P %/ after 48 hs incubation;
# (§4) 3/ Cell multiplication coefficient /M/ in the presence of different preparations, expressed as: [formula]
# CL = test: as above; format: cell-based; details: 48 hs, 50 mcg/ml
# Experimental: as §1, §2, §3, §4
# [1] = test system: MA-104 (Rhesus monkey embryo kidney cancer cells); test: as above; format: cell-based; details: 48 hs, 50 mcg/ml
# Experimental: as §1, §2, §3, §4
# [2] = test system: T-47D (breast cancer cells); test: 48 h incubation with the salts: cell fluorescence, living cells, multiplication coefficient (Table 3); format: cell-based, Human; details: 48 hs, 50 mcg/ml
# Experimental: as §1, §2, §3, §4
# T-47D breast cancer cells
# [3] = test system: HEp-2 (larynx cancer cells); test: as above; format: cell-based, Human; details: 48 hs, 50 mcg/ml
# Experimental: as §1, §2, §3, §4
# Hep-2 larynx cancer cells
# [4] = test system: KB (oral cavity cancer cells); test: 48 h incubation with the salts: cell fluorescence, living cells, multiplication coefficient (Table 2); format: cell-based, Human; details: 48 hs, 50 mcg/ml
# Experimental: as §1, §2, §3, §4
# KB oral cavity cancer cells
# [5] = test system: Mm (Mm5MT/C1, mammary gland cancer cells of C3H-strain mice); test: 48 h incubation with the salts: cell fluorescence, living cells, multiplication coefficient (Table 3); format: cell-based, Murine; details: Mm; 48 hs; 50 mcg/ml
# Experimental: as §1, §2, §3, §4
# mammary gland cancer cells of C3H-strain mice
# [6] = test system: Hela (cervix uteri cancer cells); test: 48 h incubation with the salts: cell fluorescence, living cells, multiplication coefficient (Table 1); format: cell-based, Human; details: 48 hs, 50 mcg/ml
# Experimental: as §1, §2, §3, §4
# [7] = test system: HBT-39/w (breast cancer cells); test: 48 h incubation with the salts: cell fluorescence, living cells, multiplication coefficient (Table 2); format: cell-based, Human; details: 48 hs, 50 mcg/ml
# Experimental: as §1, §2, §3, §4
# [8] = test system: GR (GRMT/F6, mammary gland cancer cells of GR-strain mice); test: as above; format: cell-based, Murine; details: 48 hs, 50 mcg/ml
# Experimental: as §1, §2, §3, §4
# GRMT/F6 mammary gland cancer cells of GR-strain mice
Structure (SMILES),Cell fluorescence /F/ (PZ),Cell multiplication coefficient /M/ (PZ),Percentage of living cells /P %/ (PZ) [%],Cell fluorescence /F/ (CL),Cell multiplication coefficient /M/ (CL),Percentage of living cells /P %/ (CL) [%],Cell fluorescence /F/ [1],Cell multiplication coefficient /M/ [1],Percentage of living cells /P %/ [1] [%],Cell fluorescence /F/ [2],Cell multiplication coefficient /M/ [2],Percentage of living cells /P %/ [2] [%],Cell fluorescence /F/ [3],Cell multiplication coefficient /M/ [3],Percentage of living cells /P %/ [3] [%],Cell multiplication coefficient /M/ [4],Percentage of living cells /P %/ [4] [%],Cell fluorescence /F/ [5],Cell multiplication coefficient /M/ [5],Percentage of living cells /P %/ [5] [%],other results
"CC1=C(CCC(=O)O)c2cc3[nH]c(cc4nc(cc5[nH]c(cc1n2)c(C(C)NC(C)C(=O)O)c5C)C(C(C)NC(C)C(=O)O)=C4C)c(C)c3CCC(=O)O.N=C(N)NCCC[C@H](N)C(=O)O.N=C(N)NCCC[C@H](N)C(=O)O (stereo not drawn) [PP/Ala/2 /Arg/2, l-arginine di/N-alanyl/-protoporphyrinate]",++,"0,15",15,-,"0,30",30,++,"0,50",50,+++,"0,82",85,++,"0,21",21,0,0,+++,"0,84",86,"Cell fluorescence /F/ [4]: +++; Cell fluorescence /F/ [6]: +; Cell multiplication coefficient /M/ [6]: 0,11; Percentage of living cells /P %/ [6]: 11%; Cell fluorescence /F/ [7]: ++; Cell multiplication coefficient /M/ [7]: 0,33; Percentage of living cells /P %/ [7]: 17%; Cell fluorescence /F/ [8]: +; Cell multiplication coefficient /M/ [8]: 0,50; Percentage of living cells /P %/ [8]: 50%"
"CC1=C(CCC(=O)O)c2cc3[nH]c(cc4nc(cc5[nH]c(cc1n2)c(C(C)NC(Cc1ccccc1)C(=O)O)c5C)C(C(C)NC(Cc1ccccc1)C(=O)O)=C4C)c(C)c3CCC(=O)O.N=C(N)NCCC[C@H](N)C(=O)O.N=C(N)NCCC[C@H](N)C(=O)O (stereo not drawn) [PP/Fen/2 /Arg/2, l-arginine di/N-phenylalanyl/protoporphyrinate]",+,"0,08",8,++,0,0,++,"0,35",35,+,"0,60",60,++,"0,08",3,"0,12",12,++++,"0,37",12,"Cell fluorescence /F/ [4]: ++; Cell fluorescence /F/ [6]: +++; Cell multiplication coefficient /M/ [6]: 0,14; Percentage of living cells /P %/ [6]: 5%; Cell fluorescence /F/ [7]: ++++; Cell multiplication coefficient /M/ [7]: 0,11; Percentage of living cells /P %/ [7]: 11%; Cell fluorescence /F/ [8]: +++; Cell multiplication coefficient /M/ [8]: 0; Percentage of living cells /P %/ [8]: 0%"
"CC1=C(CCC(=O)O)c2cc3[nH]c(cc4nc(cc5[nH]c(cc1n2)c(C(C)NC(Cc1c[nH]c2ccccc12)C(=O)O)c5C)C(C(C)NC(Cc1c[nH]c2ccccc12)C(=O)O)=C4C)c(C)c3CCC(=O)O.N=C(N)NCCC[C@H](N)C(=O)O.N=C(N)NCCC[C@H](N)C(=O)O (stereo not drawn) [PP/Trp/2 /Arg/2, l-arginine di/N-tryptophanyl/-protoporphyrinate]",+,"0,50",50,-,"0,50",50,+,"0,25",25,+,"0,13",13,+++,"0,15",15,"0,21",21,+++,"0,33",11,"Cell fluorescence /F/ [6]: +++; Cell multiplication coefficient /M/ [6]: 0,62; Percentage of living cells /P %/ [6]: 62%; Cell fluorescence /F/ [7]: ++++; Cell multiplication coefficient /M/ [7]: 0,11; Percentage of living cells /P %/ [7]: 18%; Cell fluorescence /F/ [8]: +++; Cell multiplication coefficient /M/ [8]: 0,62; Percentage of living cells /P %/ [8]: 62%"
"CSCCC(NC(C)C1=C(C)c2cc3[nH]c(cc4nc(cc5[nH]c(cc1n2)c(C)c5C(C)NC(CCSC)C(=O)O)C(C)=C4CCC(=O)O)c(CCC(=O)O)c3C)C(=O)O.N=C(N)NCCC[C@H](N)C(=O)O.N=C(N)NCCC[C@H](N)C(=O)O (stereo not drawn) [PP/Met/2 /Arg/2, l-arginine di/N-methionyl/-protoporphyrinate]",+,"0,08",8,+,0,0,++,"0,33",22,+++,"0,10",10,+++,0,0,"0,12",5,++++,"0,08",8,"Cell fluorescence /F/ [4]: ++; Cell fluorescence /F/ [6]: ++++; Cell multiplication coefficient /M/ [6]: 0,05; Percentage of living cells /P %/ [6]: 5%; Cell fluorescence /F/ [7]: ++++; Cell multiplication coefficient /M/ [7]: 0,08; Percentage of living cells /P %/ [7]: 8%; Cell fluorescence /F/ [8]: ++++; Cell multiplication coefficient /M/ [8]: 0,22; Percentage of living cells /P %/ [8]: 25%"

# From patent US5451599A, “Complex salts of hematoporphyrin and of its derivatives, their synthesis, and therapeutic agent” (Wojskowa Akademia Techniczna im. Jaroslawa Dabrowskiego, priority 1991, dated 1995)
